US20110105389A1 (priority 2009, published 2011)

System: male Zucker fatty rats
Test: Subchronic (7 day) oral administration in male Zucker fatty rats, Method B14
Format: in vivo, rat
Description: B14. Effects of Subchronic Administration of Representative Compounds of the Invention in Male Zucker Fatty Rats
The objective of this study is to determine the subchronic effects of test compounds on body weight change, food and water consumption, as well as glucose homeostasis and insulin levels in male Zucker fatty rats up to 7 days upon oral administration. The male Zucker fatty rat was selected as an insulin resistance and genetically defined obesity model which is sensitive to the effect of different insulin sensitizers in acute as well as in chronic settings.
Rats were individually housed in rodent cages with soft wood bedding on the bottom and equipped with water bottles. All individual cages were clearly labeled with a cage card indicating study number, group, animal number and dose level. Each animal was uniquely identified by an animal number. The animal number was designated the day the animals arrived at the animal facility. The animal room environment was controlled (targeted ranges: temperature 22±2° C.; relative humidity 50±10%; light/dark cycle: 12 hours light, 12 hours dark, lights on from 06:00 AM to 06:00 PM). A regular rodent diet (Charles River 5075 rodent chow, Purina Mills, Canada) was provided to the animals ad libitum, after food weighing. Municipal tap water was provided to the animals ad libitum via water bottles. Fresh tap water was provided after water bottle weighing.
An acclimation period of approximately 7 days for all groups was allowed between the receipt of animals and the start of treatment to accustom the rats to the laboratory environment. On experimental day −7, animals were stratified according to body weight into an appropriate number of groups of 4 or 8 animals each.
Test compound was administered, as a solution, orally, at the doses indicated. The dose volume was 5 mL/kg/day. Groups were dosed once daily around 8:00 a.m. On Day 3, on half of the animals (Subset A) and on Day 4 on the other half (Subset B), an OGTT was performed 2 hrs post-dosing (around 10:00 a.m.). The OGTT was repeated the same way on Days 7 (Subset A) and 8 (Subset B).
For the study animals, the data collected from study Days −7 to 8 are reported. Body weights were recorded for all animals on Day −7 prior to initiation of dosing, at the time of group assignment and daily throughout the study period (Day 1-8). Food and water intake was measured daily throughout the study period (Day 1-8). On Day 1 (Subset A), Day 2 (Subset B), Day 3 (Subset A), Day 4 (Subset B), Day 7 (Subset A) and Day 8 (Subset B), animals from Groups 2 and 3 were sampled for blood into EDTA coated tubes (K2-EDTA microtainer tubes, Becton Dickinson) from a tail vein (˜100 μl) 2 hrs post-dose for PK analysis. Blood was centrifuged at 4000 rpm for 10 min. at 4° C., and the resulting plasma transferred into non-coated tubes and stored at −80° C. until analysis.
An oral glucose tolerance test (OGTT) was carried out in animals of all groups on Day 3 (half of the animals) as well as on day 4 (other half of the animals). This was done 2 hrs post-dose. Animals were subjected to an overnight fast (food removed the day before at 5:00 PM). Blood samples of approximately 20 μL each for plasma glucose and 230 μL for plasma insulin measurements were collected into EDTA coated tubes (K2-EDTA microtainer tubes, Becton Dickinson) from a tail vein, at 0 (pre-glucose), 15, 30, 60, and 120 min after oral administration of 1.5 g/kg glucose (dextrose, Sigma Aldrich, 450 mg/mL dosing solution). The glucose solution was administered by oral gavage via a stainless steel feeding needle (18×2″, Popper @ Sons, cat. # 20068-642, VWR). While glucose concentrations were determined from a 20 μL drop of blood (Accu-Chek Aviva glucometers, Roche Diagnostics), the remaining 230 μL was centrifuged at 4000 rpm for 10 min. at 4° C., and the resulting plasma transferred into non-coated tubes and stored a −80° C. for insulin determination. […]

CC[C@@H]1CCc2ccc(F)cc2OCCN[C@@H](C(C)C)C(=O)N(C)[C@@H](C(C)O)C(=O)N[C@H](Cc2c[nH]c3ccccc23)C(=O)N1 (some centres unmarked) [Compound 1505]
food consumption on a daily basis vs vehicle controls (10 mg/kg, 2 day timepoint): significant reductions
cumulative food consumption (30 mg/kg oral, FIG. 10): significant decrease
net body weight (30 mg/kg oral, over the 7 day study period, FIG. 9): significant reduction
food consumption on a daily basis vs vehicle controls (30 mg/kg, 2 day timepoint): significant reductions
OGTT blood glucose versus untreated controls (30 mg/kg, at both day 3 and day 7): decrease
insulin sensitivity index (attaining significance at the higher dose): higher
free fatty acids (both treatment groups): significantly reduced
total cholesterol (both treatment groups): significantly reduced
food consumption on a daily basis vs vehicle controls (higher dose (30 mg/kg), through the 6 day timepoint): remained significant
plasma levels (PK analysis) (oral administration): sufficient plasma levels
insulin levels (area under the curve, AUC) in OGTT (rat, in vivo): lowering effect
